Test results published in patent US8324202B2, “5-phenyl-1H-benzo [E] [1,4] diazepine compounds substituted with an hydroxamic acid group as histone deacetylase inhibitors” (Universita Degli Studi di Firenze, priority 2007, dated 2012).
“And” between values parts separate entries of the source, which are not always exact repeats. Equal values may be shown once. Read-outs that look alike come from different tables or passages of the source.

What was measured:
Assay type in all cases: cell-based, human
[1] = system: NB4 cells; assay: Granulocytic differentiation, cytofluorimetric analysis of CD11b membrane expression, alone or with ATRA; settings: for % of CD11b+ cells: three days; for effect on CD11b positive cells, in words: alone or in combination with 20 nM ATRA
Method: Identification of markers of myeloid maturation was determined by flow cytometry by labelling cells with PE-conjugated antibody and FITC-conjugated antibody to CD11b (granulocyte marker) and CD14 (monocyte marker) respectively (Becton-Dickinson). Cell suspension aliquots (1×10^5 cells) were washed with cell wash buffer (Becton-Dickinson) and incubated with antibodies for 30 minutes in ice. After the incubation cells, resuspended in 0.3 mL of buffer containing Actinomycin D (Becton-Dickinson) to evaluate cell viability, were submitted to the cytofluorimetric analysis (FACScan, Becton-Dickinson). Cells incubated with appropriately labeled isotype controls were used to gate nonspecific fluorescence signal.
(§1) • Compounds (II) in racemic form and enantiomers S or R. • Compounds (III) in racemic form and enantiomers S or R. • Compounds (II) with R1 and R2=hydrogen were tested for their capability to synergize with ATRA and for their ability to induce granulocyte differentiation in the human promyelocytic cell line NB4. ATRA at the final concentration of 1 μM is usually employed to induce granulocyte differentiation in NB4 cells.
(§2) NB4 cells were incubated for three days in presence of the compounds listed above, alone or in combination with ATRA. Granulocyte differentiation of leukemic cells was determined by (a) Nitro-Blu tetrazolium (NBT) reduction to dark formazan precipitate (blu positive cells) counting NBT positive cells on Burker chamber and (b) cytofluorimetric analysis of CD11b membrane expression (granulocyte marker, see example 32).

[2] = system: NB4 cells; assay: Granulocytic differentiation, NBT reduction assay, alone or with ATRA; settings: for % of NBT+ cells: three days; for effect on granulocytic differentiation / NBT positive cells, in words: alone or in combination with 20 nM ATRA
Method: The analysis of functional myeloid differentiation induced by compounds of the invention was accomplished by Nitro-Blu tetrazolium (NBT) reduction assay as described below. Cell suspension (approximately 10^5/mL) were incubated in the presence of 0.25 mg/mL NBT and 500 ng of PMA (Phorbol-12-Myristate 13-acetate) (Sigma) at 37° C. for 30 minutes. Granulocyte or monocyte differentiated cell were capable of reducing NBT to dark formazan precipitate (blu positive cells). NBT positive cells were counted on Burker chamber and expressed as percentage of total cell population.
as §1, §2

[3] = system: acetylated H3 histone; assay: Histone deacetylase inhibition: western blot for acetylated histone H3 in cells incubated 6 hours with drug; settings: for Acetyl-H3 densitometric value: 6 hours, untreated = 1; for HDAC inhibitory / acetylating activity, in words (histone not specified) / H3 histone acetylating activity, in words: summary in description
Method: (§3) The new described compounds were tested for their ability to inhibit the histone deacetylase activity by western blot for the acetylated isoforms of histone H3 and H4 and also to induce growth arrest in cancer cells by activating apoptosis and/or cell differentiation. Initially, biological activities of newly synthesized HDACi were assessed by using the human acute promyelocytic leukemia cell line NB4, as the experimental model. Cells were maintained in RPMI (Bio-Whittaker Europe, Verviers, Belgio) supplemented with 10% of fetal calf serum (FCS, Boehringer Mannheim, Germania) and 2 mM glutamine (Merck, Darmstadt, Germania) at 37° C. in a humidified atmosphere of 5% CO2. Cells were counted in a Burker chamber and cells viability was assessed by the trypan blu exclusion test.
(§4) Cells, obtained as described above, were harvested in sterile plates (Falcon, Becton Dickinson, Franklin Lakes, N.J.) at density of 6×10^5/mL, and incubated for 6 hours with increasing drug concentration of single compounds. Then, the cells were lysated with RIPA buffer (50 mM Tris-HCl pH 7.4, 150 mM NaCl, 1% Nonidet P-40, 1 mM EDTA plus protease inhibitor cocktail (Protease Inhibitor Cocktail Set III, n° cat. 539134, Calbiochem, Merck, Darmstadt, Germany) and sonicated (Labsonic 1510) twice for 15s pulses at 1-2 Watts in ice. Protein concentration of cell extracts was determined according to the bicinchoninic acid colorimetric method (BCA, Pierce, Rockford, USA) by using serum bovine albumin as the standard (BSA, Sigma, Steinheim, Germania). Equal amounts of protein (20-40 μg/20-30 μL/well) were separated on NuPAGE Bis-Tris 12% gel (Novex, Invitrogen, Carlsbad, Calif.) 10% and transferred to nitrocellulose membranes (Pro-Bind, pore diameter=0.45 μm; Amersham Pharmacia). Then membranes, incubated in phosphate buffer saline (PBS) with 6% defatted dry milk as blocking solution to saturate unspecific binding sites, were probed overnight at 4° C. with primary antibodies (1;1000 dilution in PBS) raised against acetylated H4 a H3 histone isoforms (Upstate Technologies, Lake Placid, N.Y., USA). […] The experiment was performed with the compound (II) S form, where R1 and R2 can be independently a methyl group or hydrogen.

[4] = system: acetylated H4 histone; assay: Histone deacetylase inhibition: western blot for acetylated histone H4 in cells incubated 6 hours with drug; settings: for Acetyl-H4 densitometric value: 6 hours, untreated = 0; for H4 histone acetylating activity, in words: summary in description
Method: as §3, §4

[5] = system: NB4 cells; assay: Cytostatic and apoptotic activity, Annexin-V-FLUOS/propidium iodide flow cytometry, 48 hours; settings: for IC50: 48 hours, graphic extrapolation of Annexin-V results, viable cells over control, read-out: IC50 (drug concentration reducing cell density or viability by 50%); for apoptotic activity, in words: leukemic cells, summary in description
Method: as §3
Cells, were initially harvested at 4×10^5/mL (3 mL/well) cell density 24 well plate and incubated for 48 hours with increasing drug concentration. All compounds were solubilized in DMSO so that the final concentration of vehicle in culture was lower than 0.1%. At the end of treatment cell viability and apoptosis were evaluated by cytofluorimetric analysis using Anexin-V-Fluos staining (Annexin-V-FLUOS Staining Kit, Roche Molecular Biochemicals, Mannheim, Germany).
Necrotic cells, which are also Annexin-V positive, were identified by using Propidium iodide fluorochrome, that is capable of penetrating cell membranes of dying or dead cells and binding DNA.
Briefly, aliquots of cell suspensions (approximately 10^5 cells) washed in buffer PBS, were resuspended in 5 μl of binding buffer containing annexin V-fluorescein isothiocyanate (FITC) and propidium iodide; incubation was carried out for 15 minutes at room temperature, and cells were then analyzed by flow cytometry (FACScan Becton-Dickinson, San Jose, Calif.).
The IC50 values (i.e. the drug concentration necessary to reduce cell density or viability by 50% as compared to untreated control cultures) obtained by graphic extrapolation of the Anexin-V results and expressed as percentage of viable cells over control were reported In Table 2.
Data represent the percentage of viable cells as the function of drug concentration.

`CC1=C(/C=C/C(C)=C/C=C/C(C)=C/C(=O)O)C(C)(C)CCC1` [ATRA, all-trans-retinoc acid, reference compound] was tested, and the “% of CD11b+ cells” value ([1]; 20 nM ATRA alone) was 13% and 10%, the “% of CD11b+ cells” value ([1]; 1 μM ATRA alone) was 80% and 71.3% and 72% and the “% of NBT+ cells” value ([2]; 20 nM ATRA alone) was 12% and 15%. The “% of NBT+ cells” value ([2]; 1 μM ATRA alone) was 78% and 80%.

`CN1C(=O)CN=C(c2ccccc2)c2cc(NC(=O)CCCCCCC(=O)NO)ccc21` [Compound (III) R1 and R2 = hydrogen, N1-(1-methyl-2-oxo-5-phenyl-2,3-dihydro-1H-benzo[e][1,4]diazepin-7-yl)-N8-hydroxyoctanediamide] was tested, and the Acetyl-H3 densitometric value ([3]; 1 μM) was 2.84 arbitrary units, the Acetyl-H3 densitometric value ([3]; 2 μM) was 3.23 arbitrary units and the “HDAC inhibitory / acetylating activity, in words (histone not specified)” value [3] was “good acetylating and apoptotic activities”. The Acetyl-H4 densitometric value ([4]; 1 μM) was 2.39 arbitrary units, the Acetyl-H4 densitometric value ([4]; 2 μM) was 6.63 arbitrary units and the IC50 ([5]; Homo sapiens, NB-4) was 3 µM. The “apoptotic activity, in words” value [5] was “good acetylating and apoptotic activities”.

`C[C@H]1N=C(c2ccccc2)c2cc(NC(=O)CCCCCCC(=O)NO)ccc2N(C)C1=O` [Compound (III) R form with R1 or R2 = Me, (R)—N1-(1,3-dimethyl-2-oxo-5-phenyl-2,3-dihydro-1H-benzo[e][1,4]diazepin-7-yl)-N8-hydroxyoctanediamide] was tested, and the “% of CD11b+ cells” value ([1]; 3 μM compound + 20 nM ATRA) was 80%, the “% of CD11b+ cells” value ([1]; 3 μM compound alone) was 39.3% and the “effect on CD11b positive cells, in words” value [1] was “augmented the percentage of CD11b positive cells”. The Acetyl-H3 densitometric value ([3]; 1 μM) was 4.46 arbitrary units, the Acetyl-H3 densitometric value ([3]; 2 μM) was 6.85 arbitrary units and the Acetyl-H3 densitometric value ([3]; 5 μM) was 7.27 arbitrary units. The “H3 histone acetylating activity, in words” value [3] was “good H3 histone acetylating activity”, the Acetyl-H4 densitometric value ([4]; 1 μM) was 17.78 arbitrary units and the Acetyl-H4 densitometric value ([4]; 2 μM) was 29.63 arbitrary units. For the same compound, the Acetyl-H4 densitometric value ([4]; 5 μM) was 34.07 arbitrary units, the “H4 histone acetylating activity, in words” value [4] was “excellent H4 histone acetylating activity” and the IC50 ([5]; Homo sapiens, NB-4) was 3.7 µM. For the same compound, the “apoptotic activity, in words” value [5] was “high apoptotic activity”, the “% of NBT+ cells” value ([2]; 3 μM compound + 20 nM ATRA) was 70% and the “% of NBT+ cells” value ([2]; 3 μM compound alone) was 3%.

With `C[C@@H]1N=C(c2ccccc2)c2cc(NC(=O)CCCCCCC(=O)NO)ccc2N(C)C1=O` [Compound (III) S form with R1 or R2 = Me, (S)—N-1-(1,3-dimethyl-2-oxo-5-phenyl-2,3-dihydro-1H-benzo[e][1,4]diazepin-7-yl)-N8-hydroxyoctanediamide] the “% of CD11b+ cells” value ([1]; 3 μM compound + 20 nM ATRA) was 7.4%, the “% of CD11b+ cells” value ([1]; 3 μM compound alone) was 26% and the “effect on CD11b positive cells, in words” value [1] was “no increase in CD11b positive cells”. The Acetyl-H3 densitometric value ([3]; 1 μM) was 2.73 arbitrary units, the Acetyl-H3 densitometric value ([3]; 2 μM) was 2.65 arbitrary units and the Acetyl-H3 densitometric value ([3]; 5 μM) was 3.61 arbitrary units. The “HDAC inhibitory / acetylating activity, in words (histone not specified)” value [3] was “good inhibitory activity”, the Acetyl-H4 densitometric value ([4]; 1 μM) was 3 arbitrary units and the Acetyl-H4 densitometric value ([4]; 2 μM) was 4.81 arbitrary units. The Acetyl-H4 densitometric value ([4]; 5 μM) was 12.59 arbitrary units, the “% of NBT+ cells” value ([2]; 3 μM compound + 20 nM ATRA) was 40% and the “% of NBT+ cells” value ([2]; 3 μM compound alone) was 3%. The “effect on granulocytic differentiation / NBT positive cells, in words” value [2] was “strong synergistic increase of NBT positive cells”.

Work on `CC1N=C(c2ccccc2)c2cc(NC(=O)CCCCCCC(=O)NO)ccc2N(C)C1=O` (racemic) [Compound (III) racemic with R1 or R2 = Me, N1-hydroxy-N8-(1,3-dimethyl-2-oxo-5-phenyl-2,3-dihydro-1H-1,4-benzo[e][1,4]diazepin-7-yl)octanediamide] yielded an Acetyl-H3 densitometric value ([3]; 2 μM) of 4.04 arbitrary units, an Acetyl-H3 densitometric value ([3]; 4 μM) of 4.92 arbitrary units and an Acetyl-H3 densitometric value ([3]; 10 μM) of 5.42 arbitrary units. For the same compound, the “HDAC inhibitory / acetylating activity, in words (histone not specified)” value [3] was “good inhibitory activity”, the Acetyl-H4 densitometric value ([4]; 2 μM) was 12.96 arbitrary units and the Acetyl-H4 densitometric value ([4]; 4 μM) was 23.7 arbitrary units. For the same compound, the Acetyl-H4 densitometric value ([4]; 10 μM) was 28.15 arbitrary units and the IC50 [5] was 4 µM.

With `C[C@H]1N=C(c2ccccc2)c2cc(C#CCCCC(=O)NO)ccc2N(C)C1=O` [Compound (II) R form with R1 or R2 = Me, (R)-6-(1,3-dimethyl-2-oxo-5-phenyl-2,3-dihydro-1H-benzo[e][1,4]diazepin-7-yl)-N-hydroxyhex-5-ynamide] the “% of CD11b+ cells” value ([1]; 1.5 μM compound + 20 nM ATRA) was 19.8%, the “% of CD11b+ cells” value ([1]; 1.5 μM compound alone) was 14.2% and the Acetyl-H3 densitometric value ([3]; 0.5 μM) was 2.5 arbitrary units. For the same compound, the Acetyl-H3 densitometric value ([3]; 1 μM) was 2.54 arbitrary units, the Acetyl-H3 densitometric value ([3]; 2.5 μM) was 3.69 arbitrary units and the “H3 histone acetylating activity, in words” value [3] was “good activity toward H3 histone”. It also gave an Acetyl-H4 densitometric value ([4]; 0.5 μM) of 0 arbitrary units, an Acetyl-H4 densitometric value ([4]; 1 μM) of 0 arbitrary units and an Acetyl-H4 densitometric value ([4]; 2.5 μM) of 0 arbitrary units. For the same compound, the “H4 histone acetylating activity, in words” value [4] was “does not show hyperacetylating activity on H4 histones”, the “% of NBT+ cells” value ([2]; 1.5 μM compound + 20 nM ATRA) was 13.1% and the “% of NBT+ cells” value ([2]; 1.5 μM compound alone) was “≦1%”. For the same compound, the “effect on granulocytic differentiation / NBT positive cells, in words” value [2] was “no appreciable effect on granulocytic differentiation”.

Compound `CN1C(=O)C(NC(=O)CCCCCCC(=O)NO)N=C(c2ccccc2)c2ccccc21` (racemic) [Compound (IV) racemic, N1-hydroxy-N8-(1-methyl-2-oxo-5-phenyl-2,3-dihydro-1H-benzo[e][1,4]diazepin-3-yl)octanediamide] has an Acetyl-H3 densitometric value ([3]; 0.5 μM) of 2.67 arbitrary units, an Acetyl-H3 densitometric value ([3]; 1 μM) of 3.17 arbitrary units and an Acetyl-H3 densitometric value ([3]; 2.5 μM) of 3.38 arbitrary units. For the same compound, the “H3 histone acetylating activity, in words” value [3] was “reasonably good activity toward H3 histone”, the Acetyl-H4 densitometric value ([4]; 0.5 μM) was 1 arbitrary units and the Acetyl-H4 densitometric value ([4]; 1 μM) was 5.78 arbitrary units. For the same compound, the Acetyl-H4 densitometric value ([4]; 2.5 μM) was 10.89 arbitrary units, the “H4 histone acetylating activity, in words” value [4] was “good acetylating activity of H4 histone” and the IC50 ([5]; Homo sapiens, NB-4) was 0.57 µM.
